Reference: patent publication US20190390169A1, “PANCREATIC PROGENITOR CELL PRODUCTION METHOD” (Kyoto University, priority 2017, published 2019)
Where a name gives a salt, the structure may show the parent alone.

Columns and labels:
CDK8/CycC = molecular target: T1, CDK8/CycC (Homo sapiens, UniProt P49336); experiment: CDK8-inhibiting activity (Kinase Tracer-236 / Eu-anti-GST fluorescence assay); type: binding; settings: read-out: rate of inhibition of CDK8; for inhibition at 1 µM: 1 μM test compound; for inhibition at 10 µM: 10 μM test compound
T1 construct: purchased Carna Biosciences
Method: (§1) Test compounds were evaluated for their CDK8-inhibiting activity and CDK19-inhibiting activity by the following method.
(§2) Each test compound dissolved in dimethyl sulfoxide was diluted with an assay buffer (25 mM HEPES, 10 mM MgCl2, 2 mM DL-dithiothreitol, 0.01% Tween-20) to obtain a primary dilution having a DMSO concentration of 3%. The primary dilution was dispensed at 2 μL/well to a 384-well plate. Then, a mixed solution of Eu^3+ Cryptate conjugated mouse monoclonal antibody anti-glutathione S-transferase (CisBio) diluted 267-fold with an assay buffer and 60 nM Kinase Tracer-236 (Life Technologies) was added at 2 μL/well. After the addition, a kinase solution (84 ng/mL CDK8/CycC (Carna Biosciences) diluted with an assay buffer was used for CDK8-inhibiting activity measurement, and 87 ng/mL CDC2L6/CycC (Carna Biosciences) diluted with an assay buffer was used for CDK19-inhibiting activity measurement) was further added at 2 μL/well. After the addition, the plate was left standing at room temperature for 1 hour, followed by the measurement of fluorescence intensity (excitation wavelength: 320 nm, fluorescence wavelength: 615 nm, 665 nm, delay time: 50 μsec) using a plate reader EnVision (Perkin Elmer).
(§3) When the fluorescence intensity of a reaction solution under compound non-addition conditions was used as a control and the fluorescence intensity of a reaction solution under 10 μM control compound addition conditions was used as a blank, the rate of inhibition of CDK8 or CDK19 by the test compound can be calculated according to the following expression:
(§4) Rate of inhibition (%)=(1−(Fluorescence intensity of the test compound−Blank)/(Control−Blank))×100
(§5) The control compound used was commercially available 4-(4-(2,3-dihydro-1,4-benzodioxin-6-yl)-1H-pyrazol-3-yl)benzene-1,3-diol.

CDC2L6/CycC (CDK19) = molecular target: T2, CDC2L6/CycC (CDK19) (Homo sapiens, UniProt Q9BWU1); experiment: CDK19-inhibiting activity (Kinase Tracer-236 / Eu-anti-GST fluorescence assay); type: binding; settings: read-out: rate of inhibition of CDK19; for inhibition at 1 µM: 1 μM test compound; for inhibition at 10 µM: 10 μM test compound
T2 construct: purchased Carna Biosciences
Method: as §1, §2, §3, §4, §5

[1] = tested on: Ff-WJ-18 cells (human iPS cells); experiment: Induction of differentiation of iPS cells into pancreatic progenitor cells at stage 4, flow cytometry; type: cell-based; settings: stage 4, 4 days, 0.00001 μM to 1 μM, medium with or without ROCK inhibitor Y-27632, vs negative control (FIG. 2, FIG. 3)
Method: The human iPS cells used were Ff-WJ-18 cells (Kyoto University). The Ff-WJ-18 cells maintenance-cultured according to Reference Example 1 were induced to differentiate into pancreatic progenitor cells by the following procedures. Culture was performed at 37° C. under 5% CO2 in all cases, and the culture container used was coated with iMatrix-511(TM) (Nippi).
Ff-WJ-18 cells (70,000 cells/9.6 cm^2) were seeded to RPMI1640 medium containing 1% penicillin/streptomycin, 1% B27, activin A (100 ng/mL), CHIR99021 (3 μM), and Y-27632 (10 μM), and cultured for 1 day. The cells were further cultured for 2 days in RPMI1640 medium containing 1% penicillin/streptomycin, 1% B27, and activin A (100 ng/mL) with the medium replaced with a fresh one every day.
The resulting cells were cultured for 4 days using instead iMEM medium containing 1% penicillin/streptomycin, 1% B27, and KGF (50 ng/mL). […]
The cells after the culture at stage 4 were collected, and the proportion of NKX6.1-positive/PDX-1-positive cells was determined by flow cytometry. Likewise, the proportion of the cells was determined as to iPS cells and cells before the culture at stage 4 (s3d2: stage 3, day 2). […]
Also, an effect was compared between a factor having CDK1/2-inhibiting activity and a factor having CDK8/19-inhibiting activity by a similar method. […] The proportion of NKX6.1-positive/PDX-1-positive cells was determined.

T2 sequence (Q9BWU1 whole entry): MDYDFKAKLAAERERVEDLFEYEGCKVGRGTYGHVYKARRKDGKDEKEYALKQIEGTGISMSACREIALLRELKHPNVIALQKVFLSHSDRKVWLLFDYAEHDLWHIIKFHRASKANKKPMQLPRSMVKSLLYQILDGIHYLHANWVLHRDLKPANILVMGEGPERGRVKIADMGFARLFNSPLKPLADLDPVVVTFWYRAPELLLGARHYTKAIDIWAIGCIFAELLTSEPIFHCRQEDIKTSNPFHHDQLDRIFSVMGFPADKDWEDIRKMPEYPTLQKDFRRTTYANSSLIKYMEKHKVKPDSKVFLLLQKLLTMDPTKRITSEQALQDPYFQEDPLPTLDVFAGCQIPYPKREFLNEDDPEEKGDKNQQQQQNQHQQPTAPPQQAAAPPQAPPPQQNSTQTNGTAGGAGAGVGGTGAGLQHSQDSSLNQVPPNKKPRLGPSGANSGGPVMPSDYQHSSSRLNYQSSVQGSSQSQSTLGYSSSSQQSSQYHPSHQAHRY
T2 sequence (P24863 whole entry partner): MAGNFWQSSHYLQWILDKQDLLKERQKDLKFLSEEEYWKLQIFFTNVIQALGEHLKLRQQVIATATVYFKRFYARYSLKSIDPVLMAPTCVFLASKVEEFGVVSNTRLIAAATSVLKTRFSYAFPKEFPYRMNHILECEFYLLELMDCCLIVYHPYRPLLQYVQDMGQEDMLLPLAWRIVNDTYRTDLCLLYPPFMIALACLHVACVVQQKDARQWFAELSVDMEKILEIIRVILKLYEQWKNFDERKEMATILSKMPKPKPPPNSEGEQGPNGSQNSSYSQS
T1 sequence (P49336 whole entry): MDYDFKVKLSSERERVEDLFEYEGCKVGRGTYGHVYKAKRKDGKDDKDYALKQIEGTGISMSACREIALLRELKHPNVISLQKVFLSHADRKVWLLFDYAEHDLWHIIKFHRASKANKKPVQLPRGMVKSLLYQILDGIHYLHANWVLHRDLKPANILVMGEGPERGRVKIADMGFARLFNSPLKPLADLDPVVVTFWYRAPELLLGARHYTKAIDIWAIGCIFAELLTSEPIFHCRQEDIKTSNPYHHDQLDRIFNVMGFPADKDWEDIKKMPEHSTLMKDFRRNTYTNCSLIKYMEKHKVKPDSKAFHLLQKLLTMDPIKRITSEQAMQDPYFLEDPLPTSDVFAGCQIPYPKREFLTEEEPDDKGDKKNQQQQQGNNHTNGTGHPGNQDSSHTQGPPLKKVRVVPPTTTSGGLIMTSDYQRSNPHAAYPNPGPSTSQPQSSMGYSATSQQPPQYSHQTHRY
T1 sequence (P24863 whole entry partner): as the sequence (P24863 whole entry partner) above

Row | Compound | inhibition at 1 µM (CDK8/CycC) [%] | inhibition at 10 µM (CDK8/CycC) [%] | inhibition at 1 µM (CDC2L6/CycC (CDK19)) [%] | inhibition at 10 µM (CDC2L6/CycC (CDK19)) [%] | proportion of NKX6.1-positive/PDX-1-positive cells [1]
1 | Oc1ccc(-c2n[nH]cc2-c2ccc3c(c2)OCCO3)c(O)c1 [Compound 5, 4-(4-(2,3-Dihydro-1,4-benzodioxin-6-yl)-1H-pyrazol-3-yl)benzene-1,3-diol, reference compound] | 87 | 100 | 86 | 100 | –
2 | c1ccc(COc2cccc(-c3c[nH]c4ncccc34)c2)cc1 [Compound 4, 3-(3-(Benzyloxy)phenyl)-1H-pyrrolo[2,3-b]pyridine] | 91 | 102 | 94 | 101 | –
3 | Nc1nc(Nc2ccc(S(N)(=O)=O)cc2)nn1C(=S)Nc1c(F)cccc1F [CAS443798-55-8] | – | – | – | – | efficient induction of differentiation into pancreatic progenitor cells was not observed
4 | CCCCNC(=O)c1ccc2cncc(-c3ccc(OC)cc3)c2n1 [Compound 6, N-Butyl-8-(4-methoxyphenyl)-1,6-naphthyridine-2-carboxamide trifluoroacetate] | 103 | 102 | 100 | 100 | –
5 | O=C1Nc2ccccc2N(S(=O)(=O)c2ccc(F)cc2)C1CCSc1ccc2nccn2n1 (centres unmarked) [Compound 2, 4-((4-Fluorophenyl)sulfonyl)-3-(2-(imidazo[1,2-b]pyridazin-6-ylsulfanyl)ethyl)-3,4-dihydroquinoxalin-2(1H)-one] | 100 | 100 | 102 | 103 | –
6 | CCCN(CCC)C(=O)c1ccc2cncc(-c3ccc(C)cc3)c2n1 [Compound 7, 8-(4-Methylphenyl)-N,N-dipropyl-1,6-naphthyridine-2-carboxamide trifluoroacetate] | 92 | 104 | 83 | 100 | –
7 | Cn1ncc2c1-c1c(Oc3ccc(F)cc3F)sc(C(N)=O)c1CC2 [Compound 1, 8-(2,4-Difluorophenoxy)-1-methyl-4,5-dihydro-1H-thieno[3,4-g]indazole-6-carboxamide] | 97 | 94 | 99 | 96 | –
8 | NC(=O)c1ccc(-c2c[nH]c3ncccc23)cc1NCc1ccccc1 [Compound 3, 2-(Benzylamino)-4-(1H-pyrrolo[2,3-b]pyridin-3-yl)benzamide] | 101 | 105 | 101 | 104 | –
